Test results published in the supplement of paper PMC6723410.

Tested on: GUMC-403
Assay: viability at highest tested concentration (max response) relative to DMSO (% of DMSO control); higher = less cytotoxic
Details: library / dose series: MIPE library, 11-point 1:3 dilution; top concentration 23 µM; 48 h
Outline: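 Patient-derived GUMC-403 papilloma cells grown by conditional reprogramming were plated at 700/well in 5 μL F + Y medium in 1536-well plates and incubated overnight at 37 °C. They then received 23 nL of MIPE 4.0 compounds by pin tool (11-point 1:3 series) for 48 h. CellTiter-Glo luminescence was read on a ViewLux and normalised with DMSO wells as 100% and empty wells as 0%. The value is viability at the highest tested concentration relative to DMSO control.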

Compound | viability
NC/1=N/C(=O)N(C[C@@H](CO)OC[P](O)(O)=O)/C=C1 | 104

Same assay, conditions: library / dose series: MIPE library, 11-point 1:3 dilution; top concentration 46.1 µM; 48 h

Compound | viability
CN(C)C1=C(Br)C=C(C=C1)C\2NC3=C(\C4=C2C(=O)CC(C)(C)C4)C5=CC=CC=C5C=C3 (stereo not given) | 99.8
NNC(=O)c1ccncc1 | 104
O=C(c1cncc(Br)c1)N1CCC(N2CCCC2)CC1 | 115
CC(C)C[C@H](CC(=O)O)C(=O)N[C@@H](Cc1c[nH]c2ccccc12)C(=O)N[C@@H](C)c1ccccc1 | 108
O=C(O)c1cccnc1 | 103
CN1\C(=C(\O)C2=CC=CC=C2[S+]1([O-])=O)C(=O)NC3=NC=C(C)S3 | 121
N#CC(c1ccnc(NCCc2cccnc2)n1)c1nc2ccccc2s1 (stereo not given) | 108
Cc1cc(-c2ncc(CC(=O)Nc3ccc(-c4cnccn4)cn3)cc2C)ccn1 | 85.8
CN1C[C@H]2c3ccccc3Oc3ccc(Cl)cc3[C@@H]2C1 | 91.4
CCNC(=O)Nc1ccc(Oc2ncnc(N)c2/C=N/OC)cc1Cl | 109
OCCn1cc(-c2cnc3nnn(Cc4ccc5ncccc5c4)c3n2)cn1 | 106
N#Cc1c(NC(=O)c2cccc3ccccc23)sc2c1CCCC2 | 109
C[C@@H](c1ncncc1F)[C@](O)(Cn1cncn1)c1ccc(F)cc1F | 96.3
CO[C@@H]1C(N(C)C(=O)c2ccccc2)C[C@H]2O[C@]1(C)n1c3ccccc3c3c4c(c5c6ccccc6n2c5c31)C(=O)NC4=O (stereo not given in full) | 76.6
C[C@]12CC[C@H]3[C@@H](CC[C@H]4NC(=O)\C=C/[C@]34C)[C@@H]1CC[C@@H]2C(=O)NC5=CC(=CC=C5C(F)(F)F)C(F)(F)F | 96.3
CCCNC(=O)Nc1ccc(Oc2ncnc3cc(OC)c(OC)cc23)cc1Cl | 92.2
Cc1ccc([S+](=O)([O-])NC(=O)NN2CC3CCCC3C2)cc1 (stereo not given) | 109
CC(C)n1cnc2c(NCCc3ccc(O)cc3)nc(-c3csc4ccccc34)nc21 | 112
Cc1ccc([S+](=O)([O-])N[C@@H](Cc2ccccc2)C(=O)CCl)cc1 | 90.3
CC(C)(F)C[C@H](N[C@@H](c1ccc(-c2ccc([S+](C)(=O)[O-])cc2)cc1)C(F)(F)F)C(=O)NC1(C#N)CC1 | 110
CN(C(Cc1ccc(O[S+](=O)([O-])c2cccc3cnccc23)cc1)C(=O)N1CCN(c2ccccc2)CC1)[S+](=O)([O-])c1cccc2cnccc12 (stereo not given) | 83.2

Compound | viability
CNC(=O)c1ccc(N2C(=S)N(c3ccc(C#N)c(C(F)(F)F)c3)C(=O)C23CCC3)cc1F | 81.8
CC1(C)CCC[C@]2(C)[C@H]3CC(=O)O[C@]3(C)CC[C@@H]12 | 96
O=C(O)c1ccccc1C(=O)Nc1ccc(-c2ccccc2)cc1 | 111
C[C@H]1C[C@H]2[C@@H]3CCC4=CC(=O)C=C[C@]4(C)[C@@]3(F)[C@@H](O)C[C@]2(C)[C@@]1(O)C(=O)CO | 142
OC(CN1CCC(Cc2ccc(F)cc2)CC1)c1ccc(Cl)cc1 (stereo not given) | 103
N[S+](=O)([O-])c1ccc(Nc2nc(OCC3CCCCC3)c3[nH]cnc3n2)cc1 | 46.9
O=C1CCc2cc(OCCCCc3nnnn3C3CCCCC3)ccc2N1 | 107
COC1=CC=C(C=C1O)C/2=C/C(=O)C3=C(O2)C=C(O)C=C3O | 76.3
CCCCCCCCc1ccc(CCC(N)(CO)CO)cc1 | 90.9
CCN[C@H]1C[C@H](C)[S+](=O)([O-])c2sc([S+](N)(=O)[O-])cc21 | 103
CC(C)(O)C(=O)Nc1ccc([N+](=O)[O-])c(C(F)(F)F)c1 | 112
COC1=C(CC=C(C)C)C2=C(\C=C/C(=O)O2)C=C1 | 92
CCCC[S+](=N)([O-])CCC(N)C(=O)O (stereo not given) | 111
CN(C)C[C@@H]1CC[N]2C=C(C3=C2C=CC=C3)C/4=C(/C(=O)NC4=O)C5=C[N](CCO1)C6=C5C=CC=C6 | 89.8
N#C/N=C(\NCCCCCCOc1ccc(Cl)cc1)Nc1ccncc1 | 115
CCCc1cc(C(N)=S)ccn1 | 112
N[S+](=O)([O-])c1cc2c(cc1Cl)NCN[S+]2(=O)[O-] | 108
COC1=C(N2CCNC(C)C2)C(=CC3=C1N(\C=C(C(O)=O)/C3=O)C4CC4)F (stereo not given) | 120
COc1nccc(-c2c(-c3ccc(F)cc3)ncn2C2CCNCC2)n1 | 131
CC(C)CC(N(C)C)C1(c2ccc(Cl)cc2)CCC1 (stereo not given) | 122
CC/C(=C(/CC)c1ccc(O)cc1)c1ccc(O)cc1 | 84.8

Compound | viability
Cc1cccc(C)c1NC(=O)CN1CCCC1=O | 106
N/C1=N/C(=O)C/2=C(NC[C@@H](CNC3=CC=C(C=C3)C(=O)N[C@@H](CCC([O-])=O)C([O-])=O)N2C=O)\N1 | 132
CC(/C=C1\SC(=S)N(CC(=O)O)C1=O)=C\c1ccccc1 | 132
C=CC(=O)Nc1cc2c(Nc3ccc(F)c(Cl)c3)ncnc2cc1C#CC(C)(C)N1CCN(C)CC1 | 75.9
C=CC(=O)Nc1cccc(Oc2nc(Nc3ccc(N4CCN(C)CC4)cc3)ncc2Cl)c1 | 26.8
CCN1C[C@H](C)[N]2C(=C(O)C3=C2\C(=N/N(CC4=CC=C(F)C(=C4)Cl)C3=O)C(=O)NC)C1=O | 123
CC(=O)CC(C1=CC=CC=C1)C/2=C(O)/C3=CC=CC=C3OC2=O (stereo not given) | 118
CCCCCCCCOc1ccccc1C(=O)Nc1ccc(C(=O)OCC[N+](C)(CC)CC)cc1 | 104
CN[C@H](CC(C)C)C(=O)N[C@H]1C(=O)N[C@@H](CC(N)=O)C(=O)N[C@H]2C(=O)N[C@H]3C(=O)N[C@H](C(=O)N[C@H](C(=O)O)c4cc(O)cc(O)c4-c4cc3ccc4O)[C@H](O)c3ccc(c(Cl)c3)Oc3cc2cc(c3O[C@@H]2O[C@H](CO)[C@@H](O)[C@H](O)[C@H]2O[C@H]2C[C@](C)(N)[C@H](O)[C@H](C)O2)Oc2ccc(cc2Cl)[C@H]1O | 119
NNCCc1ccccc1 | 109
COc1ccccc1OCC(O)COC(N)=O (stereo not given) | 117
NC\1=N\C(=O)N(\C=C1)[C@@H]2O[C@H](CO)[C@@H](O)[C@@H]2O | 113
CCC(=O)N1CCN(CC1)C2=C(C=C(C=C2)N3C(=O)\C=C/C4=C3C5=CC(=CC=C5N=C4)C6=CN=C7C=CC=CC7=C6)C(F)(F)F | 73.8
COC1=CC(=C2C(=O)N(COC/3=C/C(=O)N4\C=C/C=C(OCCN5CCCCC5)\C4=N3)[S+]([O-])(=O)C2=C1)C(C)C | 122
Cc1cc(/C=c2/sc3nc4ccccc4n3c2=O)c(C)n1-c1ccccc1 | 106
O=C(CCCCCCC(=O)Nc1cccnc1)NO | 111
Cc1cc(SCc2sc(-c3ccc(C(F)(F)F)c(F)c3)nc2C)ccc1OCC(=O)O | 127
O=C(/C=C/c1cccnc1)NCCCCC1CCN(C(=O)c2ccccc2)CC1 | 128
CCOP(=O)(OCC)C(C)NC(=O)N(CCCl)N=O (stereo not given) | 111
O[C@@H]1[C@@H](O)[C@H](O[C@@H]([C@H]1O)C(O)=O)OC2=C(O)C(=C3C(=O)\C=C(/OC3=C2)C4=CC=CC=C4)O | 133
C=CC(=O)Nc1cc2c(Nc3ccc(F)c(Cl)c3)ncnc2cc1OCCCN1CCOCC1 | 81.6

Compound | viability
CO/C1=C/C(C)=C\[C@@H](C)[C@@H](O)[C@@H](C)C/C(C)=C\C=C/[C@H](OC)[C@@H]([C@@H](C)[C@@H](O)[C@H](C)[C@@]2(O)C[C@@H](O)[C@H](C)[C@@H](C(C)C)O2)OC1=O | 93
COC1CCC(CC1)N(C(=O)C2CCC(C)CC2)C3=C(SC(=C3)\C4=C\CCCC4)C(O)=O (stereo not given) | 110
Nc1ccc(C(=O)c2cc3c(ccc4ccccc43)[nH]2)cc1 | 109
C\C1=N\N=C(\C2=CC=C(N)C=C2)C3=CC4=C(OCO4)C=C3C1 | 132
C[N+](C)(C)CC(=O)O.[Cl-] | 113
COc1cc2c(NC3CCN(C(C)C)CC3)nc(C3CCCCC3)nc2cc1OCCCN1CCCC1 | 82.3
O=c1[nH]c2ccccc2n1CCCN1CCC(n2c(=O)[nH]c3cc(Cl)ccc32)CC1 | 130
C=C[C@H]1CN2CCC1C[C@@H]2[C@@H](O)c1ccnc2ccccc12 (stereo not given in full) | 66.8
COc1cccc([C@@H](C)NCCCc2ccccc2Cl)c1 | 105
CC(C)[N+]1(C)C2CCC1CC(OC(=O)C(CO)c1ccccc1)C2.O.[Br-] (stereo not given) | 109
COc1cc([C@@H]2c3cc4c(cc3[C@H](O)[C@H]3COC(=O)[C@H]23)OCO4)cc(OC)c1OC | 115
CCC(CCCC)COC(=O)C(\C#N)=C(\c1ccccc1)c2ccccc2 (stereo not given) | 113
O=[S+]([O-])(CCSSCC[S+](=O)([O-])[O][Na])[O][Na] | 119
C[C@@H](NCCCc1cccc(C(F)(F)F)c1)c1cccc2ccccc12 | 99.7
CC1=NN(c2ccc(C)c(C)c2)C(=O)/C1=N/Nc1cccc(-c2cccc(C(=O)O)c2)c1O | 101
Cn1cnc2c(F)c(Nc3ccc(Br)cc3Cl)c(C(=O)NOCCO)cc21 | 73.7
O=c1oc2c(O)c(O)cc3c(=O)oc4c(O)c(O)cc1c4c23 | 143
COc1cc2c(cc1OC)CC(=O)N(CCCN(C)C[C@H]1Cc3cc(OC)c(OC)cc31)CC2.Cl | 129
C[C@H]1COC2=C3N1\C=C(C(O)=O)/C(=O)C3=CC(=C2N4CCN(C)CC4)F | 105
Cc1ccccc1N1C(=O)c2cc([S+](N)(=O)[O-])c(Cl)cc2NC1C (stereo not given) | 105

Same assay, conditions: library / dose series: MIPE library, 11-point 1:3 dilution; top concentration 92.2 µM; 48 h

Compound | viability
CNC[C@H](O)c1ccc(O)c(O)c1 | 104
